Data on 6 compounds can be found in ChEMBL document CHEMBL1139605, “Novel ketal ligands for the glucocorticoid receptor: in vitro and in vivo activity” (Bioorg Med Chem Lett, 2005).

Test [1] has as its system A549. Description: Effective concentration for inhibition of interleukin-6 in human A549 lung carcinoma cell line using […]% radiolabeled Dexamethasone. The test is classed as functional, cell-based.
The species named for test [2] is Mus musculus. The test can be described thus: Effective concentration required for inhibition of interleukin-6 in mouse thioglycolate-elicited peritoneal exudate cell line using 52% radiolabeled Dexamethasone. It counts as functional.
The target of a further test is T1, Glucocorticoid receptor (Homo sapiens, UniProt P04150).
T1 sequence (P04150 whole entry): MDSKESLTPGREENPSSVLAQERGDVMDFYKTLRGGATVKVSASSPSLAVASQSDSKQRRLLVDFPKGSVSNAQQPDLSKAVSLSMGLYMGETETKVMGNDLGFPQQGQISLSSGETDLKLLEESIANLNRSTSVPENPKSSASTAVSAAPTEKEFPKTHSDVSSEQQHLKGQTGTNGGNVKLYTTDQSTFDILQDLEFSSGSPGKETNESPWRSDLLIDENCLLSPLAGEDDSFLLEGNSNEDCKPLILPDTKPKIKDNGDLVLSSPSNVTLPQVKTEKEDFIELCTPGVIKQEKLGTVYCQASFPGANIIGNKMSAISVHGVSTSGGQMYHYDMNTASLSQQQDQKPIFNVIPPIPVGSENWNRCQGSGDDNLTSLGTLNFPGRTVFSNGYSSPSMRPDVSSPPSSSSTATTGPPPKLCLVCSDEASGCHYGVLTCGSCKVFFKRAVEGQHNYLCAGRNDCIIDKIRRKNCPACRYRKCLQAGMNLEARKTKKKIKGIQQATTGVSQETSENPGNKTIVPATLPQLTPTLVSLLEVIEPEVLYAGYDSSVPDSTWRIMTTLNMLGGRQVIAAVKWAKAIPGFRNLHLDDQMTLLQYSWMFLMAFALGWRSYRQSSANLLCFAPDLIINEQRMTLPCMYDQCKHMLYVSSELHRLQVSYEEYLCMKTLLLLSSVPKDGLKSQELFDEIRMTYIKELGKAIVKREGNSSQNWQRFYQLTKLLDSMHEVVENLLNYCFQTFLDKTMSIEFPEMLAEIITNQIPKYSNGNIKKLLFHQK
The test can be described thus: Inhibition of human glucocorticoid receptor alpha isoform.

Test [3] is filed under the species Mus musculus. The test can be described thus: Effective concentration required for inhibition of interleukin-6 in mouse thioglycolate-elicited peritoneal exudate cell line using 64% radiolabeled Dexamethasone. The test is classed as functional.
In test [4] the test system is A549. Description: Effective concentration for inhibition of interleukin-6 in human A549 lung carcinoma cell line using 64% radiolabeled Dexamethasone. It counts as functional, cell-based.
For test [5], the species on record is Mus musculus. Description: Effective concentration required for inhibition of interleukin-6 in mouse thioglycolate-elicited peritoneal exudate cell line using 70% radiolabeled Dexamethasone. It counts as functional.
In test [6] the test system is A549. The test can be described thus: Effective concentration for inhibition of interleukin-6 in human A549 lung carcinoma cell line using 44% radiolabeled Dexamethasone. The test is classed as functional, cell-based.
The test system of test [7] is A549. The test can be described thus: Effective concentration for inhibition of interleukin-6 in human A549 lung carcinoma cell line using 59% radiolabeled Dexamethasone. It counts as functional, cell-based.
The species named for test [8] is Mus musculus. Description: Effective concentration required for inhibition of interleukin-6 in mouse thioglycolate-elicited peritoneal exudate cell line using 77% radiolabeled Dexamethasone. It counts as functional.
The species entered for test [9] is Mus musculus. Description: Effective concentration required for inhibition of interleukin-6 in mouse thioglycolate-elicited peritoneal exudate cell line using 57% radiolabeled Dexamethasone. It counts as functional.
For test [10], the system named is A549. The test can be described thus: Effective concentration for inhibition of interleukin-6 in human A549 lung carcinoma cell line using 47% radiolabeled Dexamethasone. It counts as functional, cell-based.

Turning to `C=C[C@@H]1CO[C@]2(CCC3=Cc4c(cnn4-c4ccc(F)cc4)C[C@@]32C)O1`, the figures for the concentration for a half-maximal effect (EC50) in the test on A549 [1] and in the test filed under Mus musculus [2] were 9 nM and 168 nM, respectively. The IC50 (as a rule, the concentration that inhibits the measured activity by half) against Glucocorticoid receptor amounted to 5.8 nM.

As to `C[C@@H]1C[C@H](C)O[C@@]2(CCC3=Cc4c(cnn4-c4ccc(F)cc4)C[C@@]32C)O1`, the EC50 (in general, the concentration that produces a half-maximal response) in the test listed under Mus musculus [3] came out at 19 nM; in the test on A549 [4], 26 nM. On Glucocorticoid receptor, half-maximal inhibition (IC50) was put at 3.1 nM.

On Glucocorticoid receptor, `C[C@]12Cc3cnn(-c4ccc(F)cc4)c3C=C1CC[C@]21OC[C@@H](c2ccccc2)O1` displayed an IC50 of 8.5 nM. This compound also came in with an EC50 in the test filed under Mus musculus [5] of 91 nM.

`C[C@@H]1CC(C)(C)O[C@]2(CCC3=Cc4c(cnn4-c4ccc(F)cc4)C[C@@]32C)O1`: at Glucocorticoid receptor, the IC50 is 2.2 nM. This compound yielded an EC50 with A549 [6] of 12 nM.

Take `C[C@@H]1CC(C)(C)O[C@@]2(CCC3=Cc4c(cnn4-c4ccc(F)cc4)C[C@@]32C)O1`: the 50% effective concentration (EC50) in the test with A549 [7] stood at 25 nM; in the test listed under Mus musculus [8] it was 18 nM. Also, half-maximal inhibition at Glucocorticoid receptor (IC50) required 2.1 nM.

Turning to `C=C[C@H]1CO[C@]2(CCC3=Cc4c(cnn4-c4ccc(F)cc4)C[C@@]32C)O1`, the EC50 came out at 183 nM in the test listed under Mus musculus [9] and 25 nM in the test on A549 [10]. Besides, 5.6 nM corresponded to half-maximal inhibition on Glucocorticoid receptor (IC50).
